Reference: US20230063794A1, “STAPLED TRIAZOLE CO-AGONISTS OF THE GLUCAGON AND GLP-1 RECEPTORS” (Merck Sharp & Dohme LLC, priority 2019, published 2023)
Starred links: 1 amine or outer side, 2 acyl side, 3 side chain; linkers in the order of their positions; H or OH if unused. Positions of bridges follow the written chain, without caps; N, C: chain ends. Non-standard residues stand in square brackets, D forms with d. Residues, ends and D or L forms follow the SMILES beside them. Groups on a side chain read outwards from the residue. Triazole bridges read from a SMILES are 1,4-linked. *: point of attachment. Lys(N3) = [N-]=[N+]=NCCCC[C@H](N)C(=O)O; γGlu = O=C(O)[C@H](CCC(=O)[*:2])N[*:1]; Palmitoyl = CCCCCCCCCCCCCCCC(=O)*; dPra = C#CC[C@@H](N)C(=O)O; Nle = CCCC[C@H](N)C(=O)O; Aib = CC(C)(N)C(=O)O

molecular target: T1, human GCGR (Homo sapiens, UniProt P47871); test: cAMP activity assay in cells expressing human GCGR; type: cell-based; conditions: cAMP production, HitHunter cAMPXS, 1 hour; assay buffer with or without 20% human serum (not given)
T1 construct: expressed in transfected cells; grown under Blasticidin and Hygromycin selection
Method: Activity of the peptides at the Glucagon receptor (GCGR) and GLP-1 receptor (GLP1R) was measured in a cAMP activity assay.
Peptides were dissolved in 100% DMSO and serially diluted to generate 10 point titrations. The peptide solutions were then transferred into 384-well assay plates (150 nL/well). Assay ready frozen cells expressing human GLP1R or human GCGR were suspended in growth media consisting of DMEM medium (GIBCO), 10% FBS (GIBCO), 1× NEAA(GIBCO), 1× P/S (GIBCO), 10 ug/ml Blasticidin (GIBCO) and 200 μg/mL Hygromycin (GIBCO). Cells were then diluted in assay buffer consisting of PBS (GIBCO), 7.5% BSA (Perkin Elmer), 100 μM RO 20-1724 (Sigma), with or without 20% human serum (MP Biomedical). The cell suspensions (15 μL) were then added to the assay plates containing the peptide solutions (30,000 cells/well for human GCGR; 10,000 cells/well for human GLP1R). The cells were incubated for 1 hour at room temperature in the dark. Production of cAMP was determined using HitHunter™ cAMPXS kits (DiscoverX) following manufacturer protocol. The plates were incubated for overnight at room temperature in the dark. Luminescence was measured using an EnVision Multilabel plate reader (Perkin Elmer). Native GLP-1 and Glucagon (Bachem) are used as control peptides. EC50 values were calculated using uses a 4 parameter logistic fit based on the Levenberg-Marquardt algorithm.

T1 sequence (P47871 26-477): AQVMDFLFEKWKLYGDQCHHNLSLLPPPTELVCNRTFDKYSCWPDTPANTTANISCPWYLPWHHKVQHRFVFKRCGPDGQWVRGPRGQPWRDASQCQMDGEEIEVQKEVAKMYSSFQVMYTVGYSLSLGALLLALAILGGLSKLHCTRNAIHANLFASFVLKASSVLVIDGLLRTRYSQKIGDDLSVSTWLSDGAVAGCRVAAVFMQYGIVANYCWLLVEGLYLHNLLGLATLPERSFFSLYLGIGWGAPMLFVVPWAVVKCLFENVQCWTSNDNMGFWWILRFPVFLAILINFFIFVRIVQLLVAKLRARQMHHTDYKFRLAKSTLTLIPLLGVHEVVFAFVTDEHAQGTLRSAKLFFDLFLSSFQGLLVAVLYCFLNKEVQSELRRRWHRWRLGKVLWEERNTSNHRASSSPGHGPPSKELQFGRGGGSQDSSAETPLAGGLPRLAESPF

Row | EC50 [nM] | Structure (SMILES)
1 | ≥ 5 | CSCC[C@@H]1NC(=O)[C@H](CC(C)C)NC(=O)[C@H](Cc2c[nH]c3ccccc23)NC(=O)[C@H](NC(=O)[C@@H](NC(=O)[C@H](Cc2ccccc2)NC(=O)[C@H](CC(=O)O)NC(=O)[C@H](CCC(N)=O)NC(=O)[C@H](C)NC(=O)[C@H](C)NC(=O)[C@H](CCCNC(=N)N)NC(=O)C(C)(C)NC(=O)[C@H](CC(=O)O)NC(=O)[C@H](CC(C)C)NC(=O)[C@H](Cc2ccc(O)cc2)NC(=O)[C@H](CCCCN)NC(=O)[C@H](CO)NC(=O)[C@H](CCCCN)NC(=O)[C@H](CC(=O)O)NC(=O)[C@H](CO)NC(=O)[C@@H](NC(=O)[C@H](Cc2ccccc2)NC(=O)[C@@H](NC(=O)CNC(=O)[C@H](CCC(N)=O)NC(=O)C(C)(C)NC(=O)[C@@H](N)Cc2c[nH]cn2)[C@@H](C)O)[C@@H](C)O)C(C)C)Cc2cn(nn2)CCCC[C@@H](C(=O)N[C@H](C(=O)N[C@@H](CCCCN)C(=O)N[C@@H](CCC(N)=O)C(=O)O)[C@@H](C)O)NC1=O [compound 11] (H-H[Aib]QGTFTSDKSKYLD[Aib]RAAQDFV[dPra]WLM[Lys(N3)]TKQ-OH; triazole 24-28; N-terminus assumed)

same assay, conditions: ratio of human GCGR EC50 to human GLP1R EC50

Row | Structure (SMILES) | hGCGR/hGLP1R (hTone)
2 | CCCCCCCCCCCCCCCC(=O)N[C@@H](CCC(=O)N[C@@H](CCC(=O)NCCCC[C@H](NC(=O)[C@H](CC(=O)O)NC(=O)[C@H](CO)NC(=O)[C@@H](NC(=O)[C@H](Cc1ccccc1)NC(=O)[C@@H](NC(=O)CNC(=O)[C@H](CCC(N)=O)NC(=O)C(C)(C)NC(=O)[C@@H](N)Cc1c[nH]cn1)[C@@H](C)O)[C@@H](C)O)C(=O)N[C@@H](CO)C(=O)N[C@@H](CCCCN)C(=O)N[C@@H](Cc1ccc(O)cc1)C(=O)N[C@@H](CC(C)C)C(=O)N[C@@H](CC(=O)O)C(=O)NC(C)(C)C(=O)N[C@@H](CCCNC(=N)N)C(=O)N[C@@H](C)C(=O)N[C@@H](C)C(=O)N[C@@H]1Cc2cn(nn2)CCCC[C@@H](C(=O)N[C@@H](Cc2c[nH]c3ccccc23)C(=O)N[C@@H](CC(C)C)C(=O)N[C@@H](CCCC)C(=O)N[C@@H](CC(=O)O)C(=O)N[C@H](C(N)=O)[C@@H](C)O)NC(=O)[C@H](C(C)C)NC(=O)[C@H](Cc2ccccc2)NC(=O)[C@H](CC(=O)O)NC1=O)C(=O)O)C(=O)O [compound 17] (H-H[Aib]QGTFTSDK([γGlu-γGlu-Palmitoyl])SKYLD[Aib]RAA[dPra]DFV[Lys(N3)]WL[Nle]DT-NH2; triazole 20-24) | 2.25
3 | CCCCCCCCCCCCCCCC(=O)N[C@@H](CCC(=O)N[C@@H](CCC(=O)NCCCC[C@H](NC(=O)[C@H](CC(=O)O)NC(=O)[C@H](CO)NC(=O)[C@@H](NC(=O)[C@H](Cc1ccccc1)NC(=O)[C@@H](NC(=O)CNC(=O)[C@H](CCC(N)=O)NC(=O)C(C)(C)NC(=O)[C@@H](N)Cc1c[nH]cn1)[C@@H](C)O)[C@@H](C)O)C(=O)N[C@@H](CO)C(=O)N[C@@H](CCCCN)C(=O)N[C@@H](Cc1ccc(O)cc1)C(=O)N[C@@H](CC(C)C)C(=O)N[C@@H](CC(=O)O)C(=O)NC(C)(C)C(=O)N[C@@H]1Cc2cn(nn2)CCCC[C@@H](C(=O)N[C@@H](Cc2ccccc2)C(=O)N[C@H](C(=O)N[C@@H](CCC(N)=O)C(=O)N[C@@H](Cc2c[nH]c3ccccc23)C(=O)N[C@@H](CC(C)C)C(=O)N[C@@H](CCCC)C(=O)N[C@@H](CC(=O)O)C(=O)N[C@H](C(N)=O)[C@@H](C)O)C(C)C)NC(=O)[C@H](CCC(N)=O)NC(=O)[C@H](C)NC(=O)[C@H](C)NC1=O)C(=O)O)C(=O)O [compound 18] (H-H[Aib]QGTFTSDK([γGlu-γGlu-Palmitoyl])SKYLD[Aib][dPra]AAQ[Lys(N3)]FVQWL[Nle]DT-NH2; triazole 17-21) | 1.96
4 | CCCCCCCCCCCCCCCC(=O)N[C@@H](CCC(=O)N[C@@H](CCC(=O)NCCCC[C@H](NC(=O)[C@H](CC(=O)O)NC(=O)[C@H](CO)NC(=O)[C@@H](NC(=O)[C@H](Cc1ccccc1)NC(=O)[C@@H](NC(=O)CNC(=O)[C@H](CCC(N)=O)NC(=O)[C@@H](CO)NC(=O)[C@@H](N)Cc1c[nH]cn1)[C@@H](C)O)[C@@H](C)O)C(=O)N[C@@H](CO)C(=O)N[C@@H](CCCCN)C(=O)N[C@@H](Cc1ccc(O)cc1)C(=O)N[C@@H](CC(C)C)C(=O)N[C@@H](CC(=O)O)C(=O)N[C@@H](C)C(=O)N[C@@H]1Cc2cn(nn2)CCCC[C@@H](C(=O)N[C@@H](Cc2ccccc2)C(=O)N[C@H](C(=O)N[C@@H](CCC(N)=O)C(=O)N[C@@H](Cc2c[nH]c3ccccc23)C(=O)N[C@@H](CC(C)C)C(=O)N[C@@H](CC(C)C)C(=O)N[C@@H](CC(=O)O)C(=O)N[C@H](C(N)=O)[C@@H](C)O)C(C)C)NC(=O)[C@H](CCC(N)=O)NC(=O)[C@H](C)NC(=O)[C@H](C)NC1=O)C(=O)O)C(=O)O [compound 14] (H-H[dS]QGTFTSDK([γGlu-γGlu-Palmitoyl])SKYLDA[dPra]AAQ[Lys(N3)]FVQWLLDT-NH2; triazole 17-21) | 0.5
5 | CCCCCCCCCCCCCCCC(=O)N[C@@H](CCC(=O)N[C@@H](CCC(=O)NCCCC[C@H](NC(=O)[C@H](CC(=O)O)NC(=O)[C@H](CO)NC(=O)[C@@H](NC(=O)[C@H](Cc1ccccc1)NC(=O)[C@@H](NC(=O)CNC(=O)[C@H](CCC(N)=O)NC(=O)[C@@H](CO)NC(=O)[C@@H](N)Cc1c[nH]cn1)[C@@H](C)O)[C@@H](C)O)C(=O)N[C@@H](CO)C(=O)N[C@@H](CCCCN)C(=O)N[C@@H](Cc1ccc(O)cc1)C(=O)N[C@@H](CC(C)C)C(=O)N[C@@H](CC(=O)O)C(=O)N[C@@H]1Cc2cn(nn2)CCCC[C@@H](C(=O)N[C@@H](CC(=O)O)C(=O)N[C@@H](Cc2ccccc2)C(=O)N[C@H](C(=O)N[C@@H](CCC(N)=O)C(=O)N[C@@H](Cc2c[nH]c3ccccc23)C(=O)N[C@@H](CC(C)C)C(=O)N[C@@H](CC(C)C)C(=O)N[C@@H](CC(=O)O)C(=O)N[C@H](C(N)=O)[C@@H](C)O)C(C)C)NC(=O)[C@H](C)NC(=O)[C@H](C)NC(=O)[C@H](CCCNC(=N)N)NC1=O)C(=O)O)C(=O)O [compound 12] (H-H[dS]QGTFTSDK([γGlu-γGlu-Palmitoyl])SKYLD[dPra]RAA[Lys(N3)]DFVQWLLDT-NH2; triazole 16-20) | 0.8

More lines, now with the values ahead:

Row | hGCGR/hGLP1R (hTone) | Structure (SMILES)
6 | 0.54 | CCCCCCCCCCCCCCCC(=O)N[C@@H](CCC(=O)N[C@@H](CCC(=O)NCCCC[C@H](NC(=O)[C@H](CC(=O)O)NC(=O)[C@H](CO)NC(=O)[C@@H](NC(=O)[C@H](Cc1ccccc1)NC(=O)[C@@H](NC(=O)CNC(=O)[C@H](CCC(N)=O)NC(=O)[C@@H](CO)NC(=O)[C@@H](N)Cc1c[nH]cn1)[C@@H](C)O)[C@@H](C)O)C(=O)N[C@@H](CO)C(=O)N[C@@H](CCCCN)C(=O)N[C@@H](Cc1ccc(O)cc1)C(=O)N[C@@H](CC(C)C)C(=O)N[C@@H](CC(=O)O)C(=O)N[C@@H](C)C(=O)N[C@@H](CCCNC(=N)N)C(=O)N[C@@H](C)C(=O)N[C@@H](C)C(=O)N[C@@H](CCC(N)=O)C(=O)N[C@@H](CC(=O)O)C(=O)N[C@@H](Cc1ccccc1)C(=O)N[C@H](C(=O)N[C@H]1CCCCn2cc(nn2)C[C@H](C(=O)N[C@H](C(N)=O)[C@@H](C)O)NC(=O)[C@H](CC(C)C)NC(=O)[C@H](CC(C)C)NC(=O)[C@H](Cc2c[nH]c3ccccc23)NC1=O)C(C)C)C(=O)O)C(=O)O [compound 24] (H-H[dS]QGTFTSDK([γGlu-γGlu-Palmitoyl])SKYLDARAAQDFV[Lys(N3)]WLL[dPra]T-NH2; triazole 24-28; N-terminus assumed)
7 | 0.72 | CCCCCCCCCCCCCCCC(=O)N[C@@H](CCC(=O)N[C@@H](CCC(=O)NCCCC[C@H](NC(=O)[C@H](CC(=O)O)NC(=O)[C@H](CO)NC(=O)[C@@H](NC(=O)[C@H](Cc1ccccc1)NC(=O)[C@@H](NC(=O)CNC(=O)[C@H](CCC(N)=O)NC(=O)[C@@H](CO)NC(=O)[C@@H](N)Cc1c[nH]cn1)[C@@H](C)O)[C@@H](C)O)C(=O)N[C@@H](CO)C(=O)N[C@@H](CCCCN)C(=O)N[C@@H](Cc1ccc(O)cc1)C(=O)N[C@@H](CC(C)C)C(=O)N[C@@H](CC(=O)O)C(=O)N[C@@H](C)C(=O)N[C@@H](CCCNC(=N)N)C(=O)N[C@@H](C)C(=O)N[C@@H](C)C(=O)N[C@@H](CCC(N)=O)C(=O)N[C@@H](CC(=O)O)C(=O)N[C@@H](Cc1ccccc1)C(=O)N[C@H](C(=O)N[C@@H]1Cc2cn(nn2)CCCC[C@@H](C(=O)N[C@H](C(N)=O)[C@@H](C)O)NC(=O)[C@H](CC(C)C)NC(=O)[C@H](CC(C)C)NC(=O)[C@H](Cc2c[nH]c3ccccc23)NC1=O)C(C)C)C(=O)O)C(=O)O [compound 15] (H-H[dS]QGTFTSDK([γGlu-γGlu-Palmitoyl])SKYLDARAAQDFV[dPra]WLL[Lys(N3)]T-NH2; triazole 24-28)
8 | 0.99 | CCCCCCCCCCCCCCCC(=O)N[C@@H](CCC(=O)N[C@@H](CCC(=O)NCCCC[C@H](NC(=O)[C@H](CC(=O)O)NC(=O)[C@H](CO)NC(=O)[C@@H](NC(=O)[C@H](Cc1ccccc1)NC(=O)[C@@H](NC(=O)CNC(=O)[C@H](CCC(N)=O)NC(=O)C(C)(C)NC(=O)[C@@H](N)Cc1c[nH]cn1)[C@@H](C)O)[C@@H](C)O)C(=O)N[C@@H](CO)C(=O)N[C@@H](CCCCN)C(=O)N[C@@H](Cc1ccc(O)cc1)C(=O)N[C@@H](CC(C)C)C(=O)N[C@@H](CC(=O)O)C(=O)NC(C)(C)C(=O)N[C@@H](CCCNC(=N)N)C(=O)N[C@@H](C)C(=O)N[C@@H](C)C(=O)N[C@@H](CCC(N)=O)C(=O)N[C@@H](CC(=O)O)C(=O)N[C@@H](Cc1ccccc1)C(=O)N[C@H](C(=O)N[C@@H]1Cc2cn(nn2)CCCC[C@@H](C(=O)N[C@H](C(N)=O)[C@@H](C)O)NC(=O)[C@H](CCCC)NC(=O)[C@H](CC(C)C)NC(=O)[C@H](Cc2c[nH]c3ccccc23)NC1=O)C(C)C)C(=O)O)C(=O)O [compound 19]
